Assay type in all cases: cell-based
In experiment [1] the test system is T47D cells expressing mutant PI3Ka (H1047R). In words: In vitro cell proliferation, T47D cells (CellTiter-Glo). The conditions noted are these: inhibition of proliferation, read-out: Avg T-47D EC50. The procedure:
(§1) In Vitro Cell Proliferation: Determination of EC50 Values for Inhibition of Proliferation in T47D Cells Expressing Mutant PI3Ka (H1047R) Mutation and SKBR3 Cells Express WT PI3Ka.
(§2) T47D or SKBR3 cells were trypsinized, resuspended in culture media and seeded onto assay ready plates. T47D culture media consisted of RPMI, 10% FBS and Insulin (0.2 units/mL). SKBR3 culture media consisted of McCoys 5a and 10% FBS. Cells were seeded at a density of 1,500 cells/well and dispensed in 50 μl onto 384 well assay ready plates (Corning, 89089-790). Assay ready plates had previously been stamped with 10-point dilutions of compounds of interest, as well as controls. The Echo655 is used to stamp plates at 40 nL of compound or DMSO. Cells were grown for 72 hours at 37° Celsius and 5% CO2. After 72 hours, cells were equilibrated at room temperature for 15 minutes. 30 μL of CellTiter-Glo reagent is added to the plate, which is then shaken for 30 minutes at temperature at 300-500 rpm. Cells are then read on an Envision plate reader. The percentage of inhibition of proliferation was calculated using the following formula: % Inhibition=100×(LumD−Lumsample)/(LumD−Lumlnh), where D is obtained from cells treated with 0.1% DMSO only; lnh is obtained from cells treated with 10 uM Alpelisib. The effective concentration achieving 50% inhibition of proliferation (EC50) is calculated by fitting the Curve using Xlfit (v5.3.1.3), equation 201: Y=Bottom+(Top−Bottom)/(1+10^((LogEC50−X)*HillSlope)).
In general terms: In ATP-based viability assays light output follows the ATP content of the culture.

Experiment [2] deals with SKBR3 cells express WT PI3Ka. In words: In vitro cell proliferation, SKBR3 cells (CellTiter-Glo). The settings on record: inhibition of proliferation. The procedure:
as §1, §2

Experiment [3] deals with phosphorylation of AKT (pAKT) in T47D cells expressing mutant PI3Ka (H1047R). Put plainly: In vitro cell pAKT (Ser473) HTRF, T47D cells. Here is the method: (§3) In Vitro Cell pAKT: Determination of IC50 Values for Inhibition of Phosphorylation of AKT (pAKT) in T47D Cells Expressing Mutant PI3Ka (H1047R) Mutation and SKBR3 Cells Express WT PI3Ka.
(§4) T47D or SKBR3 cells were trypsinized, resuspended in culture media and seeded onto assay ready plates. T47D culture media consisted of RPMI, 10% FBS and Insulin (0.2 units/mL). SKBR3 culture media consisted of McCoy's 5a and 10% FBS. Cells were seeded at a density of 5000 cells/well and dispensed in 12.5 μL onto 384 well assay ready plates (Perkin Elmer, 6008238)). Assay ready plates had previously been stamped with 10-point dilutions of compounds of interest, as well as controls. The Echo655 is used to stamp plates at 12.5 nL of compound or DMSO. Cells were grown for 6 hours at 37° Celsius and 5% CO2. After 6 hours, 4 μL of Lysis buffer reagent was added to the plate, which was then centrifuged for 1 minute at 1000 rpm. Then the plate was incubated at room temperature for 30 minutes. After 30 minutes, 4 μL of antibody mix containing Eu Cryptate, d2 Cryptate, and detection buffer, was added to the plate. The plate was centrifuged for 1 minute at 1000 rpm and then incubated overnight at room temperature. The plate was read on an Envision plate reader using the HTRF protocol. The percentage of inhibition of AKT phosphorylation was calculated using the following formula: % Inhibition=100×(pAKTHC−pAKTSample)/(pAKTHC−pAKTLC)), where pAKTHC is obtained from cells treated with 0.1% DMSO only; PAKTLC is obtained from cells treated with 10 uM Alpelisib. The IC50 (concentration achieving 50% inhibition of pAKT) is calculated by fitting the Curve using XIfit (v5.3.1.3), equation 201: Y=Bottom+(Top−Bottom)/(1+10^((LogIC50−X)*HillSlope)).

Experiment [4] concerns phosphorylation of AKT (pAKT) in SKBR3 cells express WT PI3Ka. Put plainly: In vitro cell pAKT (Ser473) HTRF, SKBR3 cells. The conditions noted are these: cellular pAKT. The procedure:
as §3, §4
On the technique in general: TR-FRET usually uses a lanthanide donor and a delayed reading to cut background.

Where [5] appears, read: cellular pAKT, T47D cells, mutant PI3Ka (H1047R), 6 hours; read-out: Avg T-47D IC50.

The term EC50 denotes the concentration giving half of the maximal effect. By IC50 is commonly meant the point on the concentration scale where inhibition reaches its midpoint.

Like-named read-outs stand apart in the source and are kept apart here. Some results are limits rather than exact numbers.

Turning to `Cc1cc(C(C)Nc2ccccc2C(=O)O)c2cc(N3CCC(c4ccccc4)C3)n(C)c(=O)c2c1` (mixture of isomers) [Example 60], the EC50 was 500 to 2000 nM in experiment [1] (72 hours) and greater than 15 µM in experiment [2] (72 hours). Further, the half-inhibitory concentration (IC50) in experiment [3] (setting [5]) is 1 to 500 nM; in experiment [4] (6 hours), greater than 15 µM.
`Cc1cc(C(C)Nc2ccccc2C(=O)O)c2cc(N3CC4CN(CC(F)(F)F)CC4C3)n(C)c(=O)c2c1` (mixture of isomers) [Example 90]: the concentration for a half-maximal effect (EC50) in experiment [1] (72 hours) is 500 to 2000 nM; in experiment [2] (72 hours), greater than 15 µM. For the same molecule, the half-maximal inhibitory concentration (IC50) in experiment [3] (setting [5]) is 500 to 2000 nM; in experiment [4] (6 hours), greater than 15 µM.
On to `Cc1cc(C(C)Nc2ccccc2C(=O)O)c2cc(N3CCN(C(C)C(F)(F)F)CC3)n(C)c(=O)c2c1` (mixture of isomers) [Example 271], for which the values for the half-maximal effective concentration (EC50) in experiment [1] (72 hours) and in experiment [2] (72 hours) were 1 to 500 nM and 2 to 15 µM, respectively. Further, the half-inhibitory concentration (IC50) is 1 to 500 nM in experiment [3] (setting [5]) and greater than 15 µM in experiment [4] (6 hours).
Turning to `Cc1cc(C(C)Nc2ccccc2C(=O)O)c2cc(N3CCC(C)(C)CC3)n(C)c(=O)c2c1` (single isomer, unassigned) [Example 2, 2-((1-(3-(4,4-dimethylpiperidin-1-yl)-2,7-dimethyl-1-oxo-1,2-dihydroisoquinolin-5-yl)ethyl)amino)benzoic acid], the concentration giving a half-maximal response (EC50) was 2000 to 15000 nM in experiment [1] (72 hours) and greater than 15 µM in experiment [2] (72 hours). Further, the IC50 was greater than 15000 nM in experiment [3] (read-out: Avg T-47D IC50; cellular pAKT, T47D cells, mutant PI3Ka (H1047R), 6 hours) and greater than 15 µM in experiment [4] (6 hours).
On to `Cc1cc(C(C)Nc2ccc(Cl)nc2C(=O)O)c2cc(N3CCC(C)(C)CC3)n(C)c(=O)c2c1` (single isomer, unassigned) [Example 3, 6-chloro-3-((1-(3-(4,4-dimethylpiperidin-1-yl)-2,7-dimethyl-1-oxo-1,2-dihydroisoquinolin-5-yl)ethyl)amino)picolinic acid], for which the concentration giving a half-maximal response (EC50) lay within 1 to 500 nM in experiment [1] (72 hours) and 2 to 15 µM in experiment [2] (Homo sapiens, SK-BR-3, 72 h). Moreover, the values for the IC50 in experiment [3] (setting [5]) and in experiment [4] (6 hours) were 500 to 2000 nM and 2 to 15 µM, respectively.
`Cc1cc(C(C)Nc2ccc(Cl)nc2C(=O)O)c2cc(N3CCC(C)(C)CC3)n(C)c(=O)c2c1` (single isomer, unassigned) [Example 4, 6-chloro-3-((1-(3-(4,4-dimethylpiperidin-1-yl)-2,7-dimethyl-1-oxo-1,2-dihydroisoquinolin-5-yl)ethyl)amino)picolinic acid]: the EC50 lay within 2000 to 15000 nM in experiment [1] (72 hours) and 2 to 15 µM in experiment [2] (72 hours). Further, the IC50 in experiment [3] (setting [5]) is 2000 to 15000 nM; in experiment [4] (6 hours), greater than 15 µM.
Regarding `Cc1cc(C(C)Nc2ccccc2C(=O)O)c2cc(C3=CCC(C)(C)CC3)n(C)c(=O)c2c1` (single isomer, unassigned) [Example 5, 2-((1-(3-(4,4-dimethylcyclohex-1-en-1-yl)-2,7-dimethyl-1-oxo-1,2-dihydroisoquinolin-5-yl)ethyl)amino)benzoic acid], the EC50 in experiment [1] (72 hours) is 2000 to 15000 nM; in experiment [2] (72 hours) it was greater than 15 µM. For the same molecule, the IC50 in experiment [3] (setting [5]) is 2000 to 15000 nM; in experiment [4] (6 hours) it was greater than 15 µM.
`Cc1cc(C(C)Nc2ccccc2C(=O)O)c2cc(C3=CCC(C)(C)CC3)n(C)c(=O)c2c1` (single isomer, unassigned) [Example 6, 2-((1-(3-(4,4-dimethylcyclohex-1-en-1-yl)-2,7-dimethyl-1-oxo-1,2-dihydroisoquinolin-5-yl)ethyl)amino)benzoic acid]: the EC50 in experiment [1] (72 hours) was 1 to 500 nM; in experiment [2] (72 hours), 2 to 15 µM. For the same molecule, the concentration for half-maximal inhibition (IC50) fell in the range of 1 to 500 nM in experiment [3] (setting [5]) and 2 to 15 µM in experiment [4] (6 hours).
In the case of `Cc1cc(C(C)Nc2ccccc2C(=O)O)c2cc(N3CCN(CC(F)(F)F)CC3)n(C)c(=O)c2c1` (single isomer, unassigned) [Example 9, 2-((1-(2,7-dimethyl-1-oxo-3-(4-(2,2,2-trifluoroethyl)piperazin-1-yl)-1,2-dihydroisoquinolin-5-yl)ethyl)amino)benzoic acid], the EC50 in experiment [1] (72 hours) was 2000 to 15000 nM; in experiment [2] (72 hours) it was greater than 15 µM. Moreover, the IC50 was 2000 to 15000 nM in experiment [3] (setting [5]) and greater than 15 µM in experiment [4] (6 hours).
`Cc1cc(C(C)Nc2ccccc2C(=O)O)c2cc(N3CC4CCC(C4)C3)n(C)c(=O)c2c1` (single isomer, unassigned) [Example 10, 2-((1-(3-(3-azabicyclo[3.2.1]octan-3-yl)-2,7-dimethyl-1-oxo-1,2-dihydroisoquinolin-5-yl)ethyl)amino)benzoic acid]: the concentration for a half-maximal effect (EC50) in experiment [1] (72 hours) lay within 2000 to 15000 nM; in experiment [2] (Homo sapiens, SK-BR-3, 72 h), 2 to 15 µM. The IC50 in experiment [3] (setting [5]) is greater than 15000 nM; in experiment [4] (6 hours), greater than 15 µM.
As to `Cc1cc(C(C)Nc2ccccc2C(=O)O)c2cc(N3CC4CCC(C4)C3)n(C)c(=O)c2c1` (single isomer, unassigned) [Example 11, 2-((1-(3-(3-azabicyclo[3.2.1]octan-3-yl)-2,7-dimethyl-1-oxo-1,2-dihydroisoquinolin-5-yl)ethyl)amino)benzoic acid], the EC50 fell in the range of 1 to 500 nM in experiment [1] (72 hours) and 2 to 15 µM in experiment [2] (72 hours). The results for the IC50 in experiment [3] (setting [5]) and in experiment [4] (6 hours) were 1 to 500 nM and 2 to 15 µM, respectively.
Consider `Cc1cc(C(C)Nc2ccccc2C(=O)O)c2cc(N3CCN(C)CC3)n(C)c(=O)c2c1` (single isomer, unassigned) [Example 12, 2-((1-(2,7-dimethyl-3-(4-methylpiperazin-1-yl)-1-oxo-1,2-dihydroisoquinolin-5-yl)ethyl)amino)benzoic acid], for which the EC50 was greater than 15000 nM in experiment [1] (72 hours) and greater than 15 µM in experiment [2] (Homo sapiens, SK-BR-3, 72 h). For the same molecule, the IC50 in experiment [3] (setting [5]) is greater than 15000 nM; in experiment [4] (Homo sapiens, SK-BR-3, 6 h), greater than 15 µM.
Regarding `Cc1cc(C(C)Nc2ccccc2C(=O)O)c2cc(N3Cc4ccc(F)cc4C3)n(C)c(=O)c2c1` (single isomer, unassigned) [Example 50], the EC50 is 2000 to 15000 nM in experiment [1] (72 hours) and greater than 15 µM in experiment [2] (72 hours).
`Cc1cc(C(C)Nc2ccccc2C(=O)O)c2cc(C3CCC(C)(C)CC3)n(C)c(=O)c2c1` (single isomer, unassigned) [Example 51]: the results for the EC50 in experiment [1] (72 hours) and in experiment [2] (72 hours) were 2000 to 15000 nM and greater than 15 µM, respectively.
For `Cc1cc(C(C)Nc2ccccc2C(=O)O)c2cc(C3CCC(C)(C)CC3)n(C)c(=O)c2c1` (single isomer, unassigned) [Example 52] the same measures were 1 to 500 nM and 2 to 15 µM.
With `Cc1ccc(N[C@H](C)c2cc(F)cc3c(=O)n(C)c(C4CC4C4CC4)cc23)c(C(=O)O)n1` (stereo in doubt) [Example 46, -(((R)-1-(3-(trans-[1,1′-bi(cyclopropan)]-2-yl)-7-fluoro-2-methyl-1-oxo-1,2-dihydroisoquinolin-5-yl)ethyl)amino)-6-methylpicolinic acid], in experiment [1] (72 hours), the EC50 was in the range of 500 to 2000 nM. For the same molecule, the IC50 is 1 to 500 nM in experiment [3] (setting [5]) and greater than 15 µM in experiment [4] (6 hours).
Turning to `Cc1cc(C(C)Nc2ccccc2C(=O)O)c2cc(N3C[C@@H]4[C@@H](C#N)[C@@H]4C3)n(C)c(=O)c2c1` (stereo partly drawn) [Example 16, 2-((1-(3-((1R,5S,6r)-6-cyano-3-azabicyclo[3.1.0]hexan-3-yl)-2,7-dimethyl-1-oxo-1,2-dihydroisoquinolin-5-yl)ethyl)amino)benzoic acid], in experiment [1] (72 hours), the EC50 was 2000 to 15000 nM. Also, the 50% inhibitory concentration (IC50) in experiment [3] (setting [5]) was greater than 15000 nM.
With `Cc1cc(C(C)Nc2ccccc2C(=O)O)c2cc(N3CC(c4ccccc4)C3)n(C)c(=O)c2c1` (stereo not drawn) [Example 53], the EC50 in experiment [1] (Homo sapiens, T47D, 72 h) is 2000 to 15000 nM; in experiment [2] (Homo sapiens, SK-BR-3, 72 h) it was greater than 15 µM.
Take `CC(=O)N1CCN(c2cc3c(C(C)Nc4ccccc4C(=O)O)cc(C)cc3c(=O)n2C)CC1` (stereo not drawn) [Example 54]: the EC50 in experiment [1] (Homo sapiens, T47D, 72 h) was 2000 to 15000 nM; in experiment [2] (Homo sapiens, SK-BR-3, 72 h), greater than 15 µM.
